Test results from US20240368163A1, “COMPOUNDS AND METHODS FOR MODULATING SPLICING” (REMIX THERAPEUTICS INC., priority 2021, published 2024).
pIC50: −log10 of the molar value. Read-outs that look alike come from different tables or passages of the source.

Key:
Type in all cases: cell-based, human
HTT [1] = assay: Splicing RT-qPCR assay, HTT mRNA canonical junction (CJ) and alternative junction (AJ); conditions: for AC50: increase in AJ mRNA
Method: (§1) Compounds described herein were used to modulate RNA transcript abundance in cells. The expression of a target mRNA was measured by detecting the formation of an exon-exon junction in the canonical transcript (CJ). A compound mediated exon-inclusion event was detected by observing an increase in formation of a new junction with an alternative exon (AJ). Real-time qPCR assays were used to detect these splicing switches and interrogate the potency of various compounds towards different target genes. A high-throughput real time quantitative PCR (RT-qPCR) assay was developed to measure these two isoforms of the mRNA (CJ and AJ) for exemplary genes, such as HTT, SMN2, and MYB, together with a control housekeeping gene, GAPDH or GUSB or PPIA, used for normalization. Briefly, the A673 or K562 cell line was treated with various compounds described herein (e.g., compounds of Formula (I)). After treatment, the levels of the HTT, MYB, or SMN2 mRNA targets were determined from each sample of cell lysate by cDNA synthesis followed by qPCR.
(§2) The A673 cell line was cultured in DMEM with 10% FBS. Cells were diluted with full growth media and plated in a 96-well plate (15,000 cells in 100 ul media per well). The plate was incubated at 37° C. with 5% CO2 for 24 hours to allow cells to adhere. An 11-point 3-fold serial dilution of the compounds was made in DMSO then diluted in media in an intermediate plate. Compounds were transferred from the intermediate plate to the cell plate with the top dose at a final concentration of 10 uM in the well. Final DMSO concentration was kept at or below 0.25%. The cell plate was returned to the incubator at 37° C. with 5% CO2 for an additional 24 hours.
(§3) The K562 cell line was cultured in IMDM with 10% FBS. For K562, cells were diluted with full growth media and plated in either a 96-well plate (50,000 cells in 50 uL media per well) or a 384-well plate (8,000-40,000 cells in 45 uL media per well). An 11-point 3-fold serial dilution of the compounds were made in DMSO then diluted in media in an intermediate plate. Compound was transferred from the intermediate plate to the cell plate with the top dose at a final concentration of 10 uM in the well. Final DMSO concentration was kept at or below 0.25%. Final volume was 100 uL for 96-well plate and 50 uL for 384-well plate. The cell plate was then placed in an incubator at 37° C. with 5% CO2 for 24 hours.
(§4) The cells were then gently washed with 50 uL-100 uL cold PBS before proceeding to addition of lysis buffer. 30 uL-50 μL of room temperature lysis buffer with DNAse I (and optionally RNAsin) was added to each well. Cells were shaken/mixed thoroughly at room temperature for 5-10 minutes for lysis to take place and then 3 uL-5 μL of room temperature stop solution was added and wells were shaken/mixed again. After 2-5 minutes, the cell lysate plate was transferred to ice for RT-qPCR reaction setup. The lysates could also be frozen at −80° C. for later use.
(§5) In some cases, a direct lysis buffer was used. An appropriate volume of 3× lysis buffer (10 mM Tris, 150 mM NaCl, 1.5%-2.5% Igepal and 0.1-1 U/uL RNAsin, pH 7.4) was directly added to either K562 or A673 cells in media and mixed by pipetting 3 times. The plates were then incubated at room temperature with shaking/rocking for 20-50 minutes to allow for lysis to take place. After this time, the cell lysate plate was transferred to ice to set up for the RT-qPCR reactions. The lysates could also be frozen at −80° C. for later use.
(§6) To set up 10 uL RT-qPCR reactions, cell lysates were transferred to 384-well qPCR plates containing the master mix according to the table below. The plates were sealed, gently vortexed, and spun down before the run. The volumes were adjusted accordingly in some instances where the reaction was carried in 20 μL. The table below summarizes the components of the RT-qPCR reactions:
(§7) The RT-qPCR reaction was performed using a QuantStudio (ThermoFisher) under the following fast cycling conditions. […]

MYB [2] = assay: Splicing RT-qPCR assay, MYB mRNA canonical junction (CJ) and alternative junction (AJ); conditions: for AC50: increase in AJ mRNA
Method: as §1, §2, §3, §4, §5, §6, §7

SMN2 = assay: Splicing RT-qPCR panel, SMN2 canonical junction (CJ) mRNA; conditions: read-out: SMN2 IC50 (decrease in CJ mRNA levels)
Method: as §1, §2, §3, §4, §5, §6, §7

Target C [3] = assay: Splicing RT-qPCR panel, Target C canonical junction (CJ) mRNA; conditions: read-out: Target C IC50 (decrease in CJ mRNA levels)
Method: as §1, §2, §3, §4, §5, §6, §7

MYB [4] = assay: HiBiT protein abundance assay, MYB; conditions: Table 13A, modified K562 cells
Method: (§8) Compounds described herein were used to screen for effects on quantitative protein abundance using a HiBit assay system (Promega). Quantitative protein abundance was determined by measuring the protein levels of HiBit-tagged protein targets expressed in cell culture via luminescence using the Nano-Glo HiBiT Lytic Detection System, which uses a split complementation assay format to reconstitute NanoBiT enzyme to generate a luminescent signal. A protein abundance assay was developed such that endogenous protein targets could be modified with the HiBiT peptide tag and their abundance could be assessed after compound treatment. Briefly, K562 cell lines containing a HiBiT-modification were treated with various compounds described herein (e.g., compounds of Formulas (I), (II), or (III)). After treatment for 24 hours, the protein abundance of a specific target was determined by measuring luminescence.
(§9) Cells were maintained in IMIDM with 10% FBS. Before the assay, cells were diluted with […] growth media (IMIDM+[…] media) and were seeded in a 384-well plate at a density of 10000 cells/well (for each cell line listed in Table 12). Each compound was prepared as a 10-point 3-fold serial dilution in DMSO with the top dose at a final concentration of 10 μM in the well. Unmodified K562 cells were added at the previously specified density with DMSO to serve as an assay baseline and positive control (PC) and DMSO only with the respective modified cell lines was added to the negative control (NC) columns. Final DMSO concentration was kept at or below 0.25%. Treated cell plates were placed in an incubator at 37° C. with 5% CO2 for 24 hours. After 24 hours, 25 μL of Complete HiBit Lytic reagent was added to each well at room temperature (e.g. one plate requiring 10 mL Lytic Buffer, 100 μL LgBiT Protein, 200 μL Lytic Substrate), shaken for 5 minutes at 600 RPM, then left to sit for 10 minutes for signal to stabilize before reading on a Spark Cyto plate reader (Tecan) with a 500 ms measurement time.
(§10) To determine compound effects on protein abundance of each target in Table 12, the percent response for each respective cell line was calculated at each compound concentration as follows:
(§11) For the normalized response at each concentration, a four-parameter logistical regression was fit to the data and the response was interpolated at the 50% value to determine a concentration for protein abundance at 50% (IC50) the untreated control.

HTT [5] = assay: HiBiT protein abundance assay, HTT; conditions: Table 13A, modified K562 cells
Method: as §8, §9, §10, §11

Target C [6] = assay: HiBiT protein abundance assay, Target C; conditions: Homo sapiens, K562, 24 h, Table 13A, modified K562 cells
Method: • Promega Nano-Glo HiBiT Lytic Detection System (cat #N3030) • Coming 384-well TC-treated microplates (cat #3570) • Synthego Engineered Cells Knock-In Clones
as §9, §10, §11

[7] = Homo sapiens, 24 h, decrease in CJ mRNA, A673 or K562 cells, 24 hours treatment, RT-qPCR, read-out: HTT CJ IC50
[8] = Homo sapiens, 24 h, A673 or K562 cells, 24 hours treatment, RT-qPCR
[9] = Homo sapiens, RT-qPCR panel, canonical junction mRNA, compound concentration having 50% response in CJ decrease, read-out: HTT IC50 (decrease in CJ mRNA levels)
[10] = Homo sapiens, 24 h, decrease in CJ mRNA, A673 or K562 cells, 24 hours treatment, RT-qPCR, read-out: MYB CJ IC50
[11] = Homo sapiens, RT-qPCR panel, canonical junction mRNA, compound concentration having 50% response in CJ decrease, read-out: MYB IC50 (decrease in CJ mRNA levels)
[12] = Homo sapiens, RT-qPCR panel, canonical junction mRNA, compound concentration having 50% response in CJ decrease
[13] = RT-qPCR panel, canonical junction mRNA, compound concentration having 50% response in CJ decrease
[14] = Homo sapiens, gene panel, CJ qPCR, protocol of Example 142

Row | Structure (SMILES) | pIC50 (HTT [1]; [7]) | AC50 (HTT [1]; [8]) | pIC50 (HTT [1]; [9]) | pIC50 (MYB [2]; [10]) | AC50 (MYB [2]; [8]) | pIC50 (MYB [2]; [11]) | pIC50 (SMN2; [12]) | pIC50 (Target C [3]; [12]) | pIC50 (MYB [4]; Homo sapiens, K562, 24 h) | pIC50 (HTT [5]; Homo sapiens, K562, 24 h) | pIC50 (Target C [6]) | other results
1 | Cc1cc(-c2ccc(-c3ccc(O[C@H]4C[C@@H]5CC(F)(F)[C@H](C4)N5)nn3)c3[nH]ncc23)ccn1 (single isomer, unassigned) [Compound 370] | < 5.00 | > 10000 nM | < 5.00 | < 5.00 | > 10000 nM | < 5.00 | 5.00 to 6.00 | 5.00 to 6.00 | 5.00 to 6.00 | 5.00 to 6.00 | < 5.00 | 
2 | FC1(F)C[C@@H]2C[C@@H](Oc3ccc(-c4ccc(-c5cn[nH]c5)c5cn[nH]c45)nn3)C[C@H]1N2 (stereo in doubt) [Compound 373, 7-[6-({6,6-difluoro-8-azabicyclo[3.2.1]octan-3-yl}oxy)pyridazin-3-yl]-4-(1H-pyrazol-4-yl)-1H-indazole] | 6.00 to 7.00 | 100 to 1000 nM | 6.00 to 7.00 | 5.00 to 6.00 | 100 to 1000 nM | 5.00 to 6.00 | 6.00 to 7.00 | 5.00 to 6.00 | 5.00 to 6.00 | 6.00 to 7.00 | 5.00 to 6.00 | 
3 | CN(c1ccc(-c2ccc(-c3cn[nH]c3)c3cn[nH]c23)nn1)[C@@H]1C[C@H]2CC(F)(F)[C@@H](C1)N2 (stereo in doubt) [Compound 376, 6,6-difluoro-N-methyl-N-{6-[4-(1H-pyrazol-4-yl)-1H-indazol-7-yl]pyridazin-3-yl}-8-azabicyclo[3.2.1]octan-3-amine] |  | 100 to 1000 nM | > 7.00 | 6.00 to 7.00 | 100 to 1000 nM | 6.00 to 7.00 | > 7.00 | 6.00 to 7.00 | 6.00 to 7.00 | 6.00 to 7.00 | 6.00 to 7.00 | 
4 | c1n[nH]cc1-c1ccc(-c2ccc(O[C@@H]3C[C@H]4CC[C@@H](C3)N4)nn2)c2[nH]ncc12 [Compound 142] | 6.00 to 7.00 | 100 to 1000 nM | 6.00 to 7.00 | 6.00 to 7.00 | 100 to 1000 nM | 6.00 to 7.00 | > 7.00 | 6.00 to 7.00 | > 7.00 | > 7.00 | > 7.00 | 
5 | CN(c1ccc(-c2ccc(-c3cn[nH]c3)c3cn[nH]c23)nn1)[C@H]1C[C@]2(C)CC[C@](C)(C1)N2 [Compound 146] |  | < 100 nM | > 7.00 | 6.00 to 7.00 | 100 to 1000 nM | 6.00 to 7.00 | > 7.00 | > 7.00 | > 7.00 | > 7.00 | > 7.00 | 
6 | CN(c1ccc(-c2ccc(-n3cccn3)c3nc[nH]c23)nn1)[C@@H]1C[C@H]2CC[C@@H](C1)N2 [Compound 170] | 5.00 to 6.00 | 1000 to 10000 nM | 5.00 to 6.00 | 5.00 to 6.00 | 1000 to 10000 nM | 5.00 to 6.00 | 6.00 to 7.00 | < 5.00 | 5.00 to 6.00 | 5.00 to 6.00 | < 5.00 | 
7 | CN(c1ccc(-c2ccc(-c3ccn(C)c(=O)c3)c3scnc23)nn1)C1CC(C)(C)NC(C)(C)C1 [Compound 174] | 5.00 to 6.00 | 1000 to 10000 nM | 5.00 to 6.00 | 5.00 to 6.00 | 1000 to 10000 nM | 5.00 to 6.00 | 6.00 to 7.00 | < 5.00 | 5.00 to 6.00 | 6.00 to 7.00 | < 5.00 | 
8 | c1cnn(-c2ccc(-c3cnc(N4CCNC(C5CC5)C4)nn3)c3cn[nH]c23)c1 (centres unmarked) [Compound 555] |  |  |  |  |  |  |  |  |  |  |  | pIC50 (HTT [1]; RT-qPCR panel, canonical junction mRNA, compound concentration having 50% response in CJ decrease, read-out: HTT IC50 (decrease in CJ mRNA levels)): > 7.00; pIC50 (MYB [2]; RT-qPCR panel, canonical junction mRNA, compound concentration having 50% response in CJ decrease, read-out: MYB IC50 (decrease in CJ mRNA levels)): 5.00 to 6.00; pIC50 (SMN2; [13]): 6.00 to 7.00; pIC50 (Target C [3]; [13]): 6.00 to 7.00; pIC50 (MYB [4]; 24 hours): 5.00 to 6.00; pIC50 (HTT [5]; 24 hours): 6.00 to 7.00
9 | c1cnn(-c2ccc(-c3cnc(O[C@H]4C[C@H]5COC[C@@H](C4)N5)nn3)c3cn[nH]c23)c1 [Compound 585] |  |  | < 5.00 |  |  | < 5.00 | < 5.00 | < 5.00 |  |  |  | 
10 | COc1nc(-c2ccc(OC3CC(C)(C)NC(C)(C)C3)nc2)ccc1-c1cnn(C)c1 [Compound 990] |  |  |  |  |  |  |  |  |  |  |  | pIC50 (HTT [1]; Homo sapiens, gene panel, CJ qPCR, protocol of Example 142, read-out: HTT IC50 (decrease in CJ mRNA levels)): < 5.00; pIC50 (MYB [2]; Homo sapiens, gene panel, CJ qPCR, protocol of Example 142, read-out: MYB IC50 (decrease in CJ mRNA levels)): < 5.00; pIC50 (SMN2; [14]): 5.00 to 6.00; pIC50 (Target C [3]; [14]): < 5.00
